Laboratory results from patent US7932272B2, “Antifungal agent containing heterocyclic compound” (Eisai R&D Management Co., Ltd., priority 2003, dated 2011).
Values after ≈ are worked out from the molar mass of the structure shown.

Experiments:
[1] = tested on: A. fumigatus Tsukuba strain; experiment: Anti-Aspergillus activity (MIC measurement); assay type: cell-based; details: MIC by visual inspection, 48 hours at 30 to 35° C.
Experimental: (§1) For the C. albicans E81022 strain, a fungal suspension from a standing culture for 48 hours at 30° C. in a Sabouraud dextrose liquid culture medium (SDB) was diluted 10,000-fold with a 1.3-fold concentrated SDB to adjust to a fungal suspension of 1 to 2×10^4 cells/ml. For the A. fumigatus Tsukuba strain, −80° C. stored strain was diluted 1,000-fold with a 1.3-fold concentrated SDB to adjust to a fungal suspension of 2 to 3×10^3 cells/ml.
(§2) Using a U-bottomed 96 well plate, 8 samples/plate (A to H) of sample dilution solutions were prepared. On the 3rd row of each plate was dispensed 240 μl of sterilized and distilled water, and on the 2nd and 4th to 12th rows were dispensed 125 μl of 4% dimethylsulfoxide solution. Weighed sample was dissolved in dimethylsulfoxide to prepare a 2.5 to 20 mg/ml solution, 10 μl of this solution was then added to the 3rd row of the prepared plate, and 10 steps of two-fold step dilutions (125 μl of solution+125 μl of 4% dimethylsulfoxide) were performed on the plate.
(§3) The fungal suspension preprared in (1) was used in the amount of 75 μl/well to inoculate a V-bottomed or flat-bottomed 96 well plate containing 25 μl/well of test compound dilution solution prepared in (2), and a standing culture was carried out aerobically for 48 hours at 30 to 35° C.

[2] = tested on: C. albicans E81022 strain; experiment: Experimental systemic candida infection model in mice; assay type: in vivo, female ICR mice; details: C. albicans i.v. infection, 2.5 mg/kg peroral 3 times every 4 hours, observed until 14 days after infection
Experimental: A standing culture of C. albicans E81022 strain was carried out for 48 hours at 30° C. in Sabouraud dextrose agar medium (SDA), the recovered fungal cells were suspended in sterilized physiological saline. By counting the fungal number on a cytometry plate, the suspension was diluted to 2×10^7 cells/ml with sterilized physiological saline to serve as fungal inoculum.
The fungal inoculum was used in the amounts of 0.2 ml to inoculate 4.5 to 5.5 week-old female ICR mice in the tail vein (4×10^6 cells/mouse).
From 0.5 to 1 hour after fungal inoculation, 0.2 ml of agent solution (dissolved or suspended in sterilized physiological saline containing 6.5% dimethylsulfoxide and 3.5% Tween 80) was administered into the stomach using a peroral probe, 3 times every 4 hours. The agent concentration was 2.5 mg/kg, and the number of animals in one group was 5 animals.
(§4) The protective effect was determined by observing life/death until 14 days after infection and calculating the mean survival days.

[3] = tested on: C. albicans E81022 strain; experiment: Anti-Candida activity (MIC measurement); assay type: cell-based; details: E81022STRAIN, MIC by visual inspection, C. albicans E81022, 48 hours at 30 to 35° C.
Experimental: as §1, §2, §3

[4] = tested on: A. fumigatus Tsukuba strain; experiment: Experimental respiratory aspergillus infection model in mice; assay type: in vivo, female DBA/2N mice; details: 5-fluorouracil-treated mice, A. fumigatus nasal infection, 20 or 40 mg/kg peroral 3 times per day for 3 days, observed until 14 days after infection
Experimental: In order to increase susceptibility of the mice to infection, 200 mg/kg of 5-fluorouracil was administered subcutaneously 6 days prior to infection.
A. fumigatus Tsukuba strain was used.
A spore suspension of the infection strain was used to coat a potato dextrose agar medium (PDA), a standing culture was carried out for 4 to 7 days at 35° C., spore was then suspended in a sterilized physiological saline containing 0.05% Tween 80. By counting the pore count on a cytometry plate, the suspension was diluted to 6×10^5 cells/ml with sterilized physiological saline containing 0.05% Tween 80 to serve as fungal inoculum.
Under ketalar anesthesia, 50 μl of fungal inoculum was used to inoculate 8 to 9 week-old female DBA/2N mice in the nose (3×10^4 cells/mouse).
From 1 hour after fungal inoculation, 0.2 ml of agent solution (dissolved or suspended in sterilized physiological saline containing 6.5% DMSO and 3.5% Tween 80), was administered into the stomach using a peroral probe 3 times per day for 3 days. The agent dosage was from 20 or 40 mg/kg, and the number of animals in one group was 5 animals.
as §4

Structure (SMILES)	MIC [1]	Mean Survival Days [2]	MIC [3]	Mean Survival Days [4]
Nc1ncccc1C(=O)NCc1ccc(Cc2ccccc2)s1 [Example A-70, 2-Amino-N-(5-benzyl-thiophen-2-ylmethyl)-nicotinamide]	0.78 µg/mL (≈ 2.41 µM)	12.6 days	0.05 µg/mL (≈ 0.155 µM)	–
Nc1ccc(C(=O)NCc2ccc(Oc3cccc(F)c3)s2)cn1 [Example A-137, 6-Amino-N-(5-(3-fluorophenoxy)thiophen-2-ylmethyl)nicotinamide]	–	12.8 days	1.56 µg/mL (≈ 4.54 µM)	–
O=C(NCc1ccc(Oc2ccc(F)cc2)s1)c1ccc2ncccc2n1 [Example D-7, [1,5]Naphthylidine-2-carboxylic acid (5-(4-fluoro-phenoxy)-thiophen-2-ylmethyl)-amide]	–	–	–	10.6 days
Nc1ncccc1C(=O)NCc1ccc(Oc2cccc(F)c2)s1 [Example A-68, 2-Amino-N-(5-(3-fluoro-phenoxy)-thiophen-2-ylmethyl)-nicotinamide]	0.78 µg/mL (≈ 2.27 µM)	10.6 days	0.05 µg/mL (≈ 0.146 µM)	–
Nc1ncccc1C(=O)NCc1ccc(CCNc2ccccc2)o1 [Example A-8, 2-Amino-N-(5-(2-phenylamino-ethyl)-furan-2-ylmethyl)-nicotinamide]	6.25 µg/mL (≈ 18.6 µM)	–	3.13 µg/mL (≈ 9.3 µM)	–
Nc1ccc(C(=O)NCc2ccc(Cc3ccccc3)s2)c(N)n1 [Example A-55, 2,6-Diamino-N-(5-benzyl-thiophen-2-ylmethyl)-nicotinamide]	–	–	–	12.6 days
Nc1ncccc1C(=O)NCc1ccc(Cc2ccccc2)o1 [Example A-5, 2-Amino-N-(5-benzyl-furan-2-ylmethyl)-nicotinamide]	0.78 µg/mL (≈ 2.54 µM)	–	0.2 µg/mL (≈ 0.651 µM)	–
Cc1nc2ccc(C(=O)NCc3cccc(Oc4ccccc4)c3)cc2o1 [Example K-1, 2-Methyl-benzoxazole-6-carboxylic acid 3-phenoxybenzylamide]	1.56 µg/mL (≈ 4.35 µM)	–	0.78 µg/mL (≈ 2.18 µM)	–
O=C(NCc1ccc(Oc2ccccc2)s1)c1cnc2ccsc2c1 [Example U-2, Thieno[3,2-b]pyridine-6-carboxylic acid (5-phenoxy-thiophen-2-yl methyl)-amide]	3.13 µg/mL (≈ 8.54 µM)	–	0.78 µg/mL (≈ 2.13 µM)	–
Cc1ccc(Cc2ccc(CNC(=O)c3ccc4ncccc4c3)s2)s1 [Example E-73, Quinoline-6-carboxylic acid (5-(5-methyl-thiophen-2-ylmethyl)-thiophen-2-ylmethyl)-amide]	0.78 µg/mL (≈ 2.06 µM)	–	0.2 µg/mL (≈ 0.528 µM)	–
O=C(NCc1ccn(Cc2cccc(F)c2)c1)c1ccc2ncccc2n1 [Example D-4, [1,5]Naphthylidine-2-carboxylic acid (1-(3-fluoro-benzyl)-1H-pyrrol-3-ylmethyl)-amide]	–	–	–	10.8 days
O=C(NCc1ccc(Oc2cccc(F)c2)s1)c1ccc2ncccc2c1 [Example E-65, Quinoline-6-carboxylic acid (5-(3-fluorophenoxy)thiophen-2-ylmethyl) amide]	1.56 µg/mL (≈ 4.12 µM)	11.6 days	0.1 µg/mL (≈ 0.264 µM)	–
O=C(NCc1ccc(Oc2ccc(F)cc2)s1)c1ccc2ncccc2c1 [Example E-67, Quinoline-6-carboxylic acid (5-(4-fluorophenoxy)thiophen-2-yl)methyl amide]	0.78 µg/mL (≈ 2.06 µM)	–	0.39 µg/mL (≈ 1.03 µM)	–
O=C(NCc1ccc(OCc2ccccc2)cc1)c1ccc2ncccc2n1 [Example D-2, [1.5]Naphthylidine-2-carboxylic acid 4-benzyloxybenzylamide]	0.78 µg/mL (≈ 2.11 µM)	–	0.78 µg/mL (≈ 2.11 µM)	–
O=C(NCc1ccc(Cc2cccc(Cl)c2)s1)c1ccc2ncccc2c1 [Example E-71, Quinoline-6-carboxylic acid (5-(3-chlorobenzyl)-thiophen-2-ylmethyl)-amide]	1.56 µg/mL (≈ 3.97 µM)	–	0.2 µg/mL (≈ 0.509 µM)	–
Nc1ccc(C(=O)NCc2ccc(OCc3ccccc3)cc2)c(N)n1 [Example A-10, 2,6-Diamino-N-(4-benzyloxy-benzyl)-nicotinamide]	1.56 µg/mL (≈ 4.48 µM)	12.5 days	0.78 µg/mL (≈ 2.24 µM)	–

Structure (SMILES)	MIC [1]	Mean Survival Days [2]	MIC [3]	Mean Survival Days [4]
O=C(NCc1cccc(C=C2CCCC2)c1)c1ccc2ncccc2c1 [Example E-51, 6-Quinolinecarboxylic acid 3-cyclopentylydenemethylbenzylamide]	3.13 µg/mL (≈ 9.14 µM)	–	0.78 µg/mL (≈ 2.28 µM)	–
O=C(NCc1ccc(Oc2ccccc2)s1)c1ccc2ncsc2c1 [Example L-7, Benzothiazole-6-carboxylic acid (5-phenoxythiophen-2-ylmethyl)-amide]	0.78 µg/mL (≈ 2.13 µM)	–	0.1 µg/mL (≈ 0.273 µM)	–
CC(=O)c1ccc(C(=O)NCc2ccc(Oc3ccccc3)s2)c(N)n1 [Example A-98, 6-Acetyl-2-amino-N-(5-phenoxy-thiophen-2-ylmethyl)-nicotinamide]	1.56 µg/mL (≈ 4.25 µM)	–	0.39 µg/mL (≈ 1.06 µM)	–
Nc1ccc(C(=O)NCc2ccc(OCc3ccccc3)cc2)cn1 [Example A-39, 6-Amino-N-(4-benzyloxybenzyl)-nicotinamide]	1.56 µg/mL (≈ 4.68 µM)	–	1.56 µg/mL (≈ 4.68 µM)	–
COCc1ccc(C(=O)NCc2ccc(OCc3ccccn3)cc2)c(N)n1 [Example A-31, 2-Amino-6-methoxymethyl-N-(4-(pyridin-2-ylmethoxy)-benzyl)-nicotinamide]	–	–	–	11.2 days
Nc1ccc(C(=O)NCc2ccc(Oc3ccc(F)cc3)s2)c(N)n1 [Example A-53, 2,6-Diamino-N-(5-(4-fluoro-phenoxy)-thiophen-2-ylmethyl)-nicotinamide]	0.78 µg/mL (≈ 2.18 µM)	13.4 days	0.39 µg/mL (≈ 1.09 µM)	–
O=C(NCc1ccc(Oc2ccccc2)s1)c1cnc2[nH]ccc2c1 [Example R-1, 1H-Pyrrolo[2,3-b]pyridine-5-carboxylic acid (5-phenoxy-thiophen-2-ylmethyl)-amide]	3.13 µg/mL (≈ 8.96 µM)	10.4 days	0.39 µg/mL (≈ 1.12 µM)	–
O=C(NCc1ccc(OCc2ccccc2)cc1)c1ccc2ncccc2c1 [Example E-8, quinoline-6-carboxylic acid 4-benzyloxybenzylamide]	0.2 µg/mL (≈ 0.543 µM)	–	0.2 µg/mL (≈ 0.543 µM)	–
O=C(NCc1ccc(OCc2cccc(F)c2)cc1)c1ccc2ncsc2c1 [Example L-4, Benzothiazole-6-carboxylic acid 4-(3-fluoro-benzyloxy)-benzylamide]	0.2 µg/mL (≈ 0.51 µM)	–	0.2 µg/mL (≈ 0.51 µM)	–
O=C(Cc1cccc(Oc2ccccc2)c1)Nc1ccc2ncccc2c1 [Example E-19, 2-(3-Phenoxy-phenyl)-N-quinolin-6-yl-acetamide]	1.56 µg/mL (≈ 4.4 µM)	–	0.78 µg/mL (≈ 2.2 µM)	–
Nc1nc(OCCO)ccc1C(=O)NCc1ccc(Oc2ccccc2)s1 [Example A-112, 2-Amino-6-(2-hydroxyethoxy)-N-(5-phenoxy-thiophen-2-ylmethyl)-nicotinamide]	6.25 µg/mL (≈ 16.2 µM)	–	3.13 µg/mL (≈ 8.12 µM)	–
COCc1ccc(C(=O)NCc2ccc(OCc3ccc(F)cc3)cc2)c(N)n1 [Example A-32, 2-Amino-N-(4-(4-fluoro-benzyloxy)-benzyl)-6-methoxymethyl-nicotinamide]	–	–	–	11.8 days
Nc1ccc(C(=O)NCc2ccc(Oc3ccccc3)s2)c(N)n1 [Example A-54, 2,6-diamino-N-(5-phenoxy-thiophene-2-ylmethyl)-nicotinamide]	1.56 µg/mL (≈ 4.58 µM)	10.0 days	0.78 µg/mL (≈ 2.29 µM)	–
Nc1ncccc1C(=S)NCc1ccc(OCc2ccccc2)cc1 [Example A-22, 2-Amino-N-(4-benzyloxy-benzyl)-thionicotinamide]	3.13 µg/mL (≈ 8.96 µM)	–	0.78 µg/mL (≈ 2.23 µM)	–
Nc1nc(Cl)ccc1C(=O)NCc1ccc(Oc2ccccc2)s1 [Example A-101, 2-Amino-6-chloro-N-(5-phenoxy-thiophen-2-ylmethyl)-nicotinamide]	0.39 µg/mL (≈ 1.08 µM)	–	0.1 µg/mL (≈ 0.278 µM)	–
